From publication PMC10220878 (Pharmaceutics, 2023)
“And” between values parts separate entries of the source, which are not always exact repeats. Equal entries are not always repeated. “Also recorded” adds a separate entry of the source.

How the values were obtained:
[1] = system: mouse primary astrocytes; assay: MTS cell viability assay in mouse primary astrocytes; type: cell-based; conditions: 3 h, concentrations used in permeability studies (MF 1, 10, 20 mM; mitoxantrone 25 µM; corticosterone 150 µM)
[2] = system: bEnd.3 cells; assay: MTS cell viability assay in bEnd.3 cells
[3] = system: Oct-2; conditions: cited from earlier work; for IC50: read-out: IC50 for 10 µM Metformin Uptake, Oct-2, 10 µM metformin
[4] = system: Oct-1; conditions: cited from earlier work; for IC50: read-out: IC50 for 10 µM Metformin Uptake, Oct-1, 10 µM metformin
[5] = system: Oct-3; conditions: cited from earlier work; for IC50: read-out: IC50 for 10 µM Metformin Uptake, Oct-3, 10 µM metformin
[6] = system: hOCT2; conditions: read-out: apparent IC50 of MF for uptake of tracer [14C] MF; cited from earlier work
[7] = human subjects; cited from earlier work
[8] = molecular target: T1, P-gp (MDR1) (Homo sapiens, UniProt P08183); assay: P-glycoprotein efflux transporter substrate assay (MDR1-MDCK transwell); type: in vitro ADME; conditions: dog, MDR1-MDCK, 10 µM MF, 120 min
T1 construct: host or cells: MDR1-MDCK (MDCK cells overexpressing MDR1)
Protocol: (§1) For P-GP efflux assay, MDR1-MDCK 12-well transport assay (MB Biosciences LLC, Natick, MA, USA) was used. The cells were maintained in high glucose DMEM media supplied with 10% FBS, non-essential amino acid, penicillin/streptomycin, L-glutamine, and colchicine as recommended by the supplier. After the shipping medium was changed to a fresh MDR1-MDCK cell culture medium, the plate was kept in the incubator for 24 h before performing the experiment. […] The inhibitor was present on both sides of the compartments during pre-incubation of 30 min and during the transport experiment. After 120 min of incubation at 37 °C, samples were collected from the basolateral chamber and quantified by LC-MS/MS method. […] The permeability coefficient (PC, cm/s) was calculated using the published literature method. The PC value from apical (A) to basolateral (B) compartment in the presence and absence of CsA was used to calculate the unidirectional flux ratio (UFR), which is defined by the following equation:(3) UFR=PC, A−to−B+CsA/PC,A−to−B−CsA

[9] = molecular target: T2, P-GP (Homo sapiens, UniProt P08183); assay: as above; type: in vitro ADME
T2 construct: host or cells: MDR1-MDCK (MDCK cells overexpressing MDR1)
Protocol: as §1

[10] = system: in vitro co-culture model of BBB (bEnd.3 cells and mouse primary astrocytes); assay: NaF permeability across BBB co-culture (barrier integrity); type: in vitro ADME; conditions: Figure S1
[11] = 3 h, concentrations used in permeability studies (MF 1, 10, 20 mM; mitoxantrone 25 µM; corticosterone 150 µM)
[12] = single transporter-expressing cell line, read-out: apparent Km of saturable MF uptake

T1 sequence (P08183 whole entry): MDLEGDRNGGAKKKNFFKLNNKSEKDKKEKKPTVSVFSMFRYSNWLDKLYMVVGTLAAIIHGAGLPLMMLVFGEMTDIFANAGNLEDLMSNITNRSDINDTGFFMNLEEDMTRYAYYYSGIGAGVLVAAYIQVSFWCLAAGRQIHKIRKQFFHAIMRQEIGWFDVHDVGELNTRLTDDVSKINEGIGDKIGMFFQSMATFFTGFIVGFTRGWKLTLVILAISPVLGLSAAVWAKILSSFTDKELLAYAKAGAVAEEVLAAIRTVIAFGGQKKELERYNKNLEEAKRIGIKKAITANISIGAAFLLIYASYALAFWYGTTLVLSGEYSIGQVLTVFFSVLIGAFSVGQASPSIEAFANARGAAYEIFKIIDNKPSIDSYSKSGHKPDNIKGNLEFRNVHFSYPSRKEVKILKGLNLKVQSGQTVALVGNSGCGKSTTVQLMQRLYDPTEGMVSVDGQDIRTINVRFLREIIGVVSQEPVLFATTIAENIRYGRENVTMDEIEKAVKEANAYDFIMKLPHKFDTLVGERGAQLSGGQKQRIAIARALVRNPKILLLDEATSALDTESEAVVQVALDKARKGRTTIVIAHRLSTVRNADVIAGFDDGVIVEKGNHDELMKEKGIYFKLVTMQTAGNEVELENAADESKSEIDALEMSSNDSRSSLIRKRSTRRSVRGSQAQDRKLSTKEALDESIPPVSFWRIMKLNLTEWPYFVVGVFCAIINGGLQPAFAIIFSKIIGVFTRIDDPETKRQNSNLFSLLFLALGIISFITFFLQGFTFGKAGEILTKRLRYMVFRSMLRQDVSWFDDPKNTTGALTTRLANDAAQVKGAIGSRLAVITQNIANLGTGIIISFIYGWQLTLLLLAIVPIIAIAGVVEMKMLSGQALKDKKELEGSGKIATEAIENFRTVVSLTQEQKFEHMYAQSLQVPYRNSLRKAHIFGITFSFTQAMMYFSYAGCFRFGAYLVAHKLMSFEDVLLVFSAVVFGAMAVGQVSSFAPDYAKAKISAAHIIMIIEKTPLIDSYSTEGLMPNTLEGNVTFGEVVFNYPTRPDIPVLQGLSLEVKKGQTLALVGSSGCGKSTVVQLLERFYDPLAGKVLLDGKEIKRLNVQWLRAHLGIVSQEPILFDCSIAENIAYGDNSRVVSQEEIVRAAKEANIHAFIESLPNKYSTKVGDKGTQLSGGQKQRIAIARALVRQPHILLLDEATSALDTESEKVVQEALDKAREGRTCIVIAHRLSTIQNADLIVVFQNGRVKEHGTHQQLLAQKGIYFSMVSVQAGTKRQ
T2 sequence (P08183 whole entry): as above

C[C@]12C[C@H](O)[C@H]3[C@@H](CCC4=CC(=O)CC[C@@]43C)[C@@H]1CC[C@@H]2C(=O)CO [Corticosterone]
toxicity to cells (MTS cell viability) [1]: not toxic
toxicity to cells (MTS cell viability) [2, 11]: not toxic
IC50 [3]: 1.3 µM
IC50 [4]: 3.2 µM
IC50 [5]: 0.2 µM

CN(C)C(=N)N=C(N)N [MF, metformin]
IC50 [6]: ~2 mM
toxicity to cells (MTS cell viability) [1]: not toxic
toxicity to cells (MTS cell viability) [2, 11]: not toxic
steady-state concentration [7]: 1.8 µg/mL and 13 µM
Km [3, 12]: 600 µM
Km [4, 12]: 3.1 mM
Km [5, 12]: 2.6 mM
Papp B→A at 120 min, 10 µM [8]: 0.163 ± 0.006 ×10⁻⁶ cm/s
Papp A→B at 120 min, 10 µM ([8]; without CsA): 0.258 ± 0.018 ×10⁻⁶ cm/s
Metformin PC, A > B, +CsA ([9]; MDR1-MDCK, 10 µM MF, 120 min, with CsA 10 µM): 3.28 ± 0.06 1 × 10^−7 cm/s
interaction with the efflux transporter P-GP ([9]; P-GP overexpressing cell line): does not interact

C[n+]1ccc(-c2ccccc2)cc1 [MPP+]
toxicity to cells (MTS cell viability) ([2]; 5 mM, 4 h incubation): toxic; also recorded: significantly affected

O=C1c2c(O)ccc(O)c2C(=O)c2c(NCCNCCO)ccc(NCCNCCO)c21 [Mitoxantrone]
toxicity to cells (MTS cell viability) [1]: not toxic
toxicity to cells (MTS cell viability) [2, 11]: not toxic
IC50 [3]: 135 µM
IC50 for Oct1 lower than for Oct2 and Oct3 (selectivity) ([4]; estimated IC50): 40–60 fold
inhibition of the respective transporter (Oct1) ([4]; mitoxantrone at 25 µM, based on Table 1): > 80%
IC50 [4]: 3 µM
IC50 [5]: 174 µM

O=C([O-])c1ccccc1-c1c2ccc(=O)cc-2oc2cc([O-])ccc12.[Na+].[Na+] [NaF, sodium fluorescein]
PC of NaF compared with [14C] sucrose [10]: no statistically significant difference

CNCCCN1c2ccccc2CCc2ccccc21 [desipramine]
toxicity to cells (MTS cell viability) ([2]; 200 µM, 4 h incubation): toxic; also recorded: significantly affected
toxicity to cells (MTS cell viability) ([2]; 100 µm, 4 h incubation): significantly affected
